From patent publication US8710228B2, “Cycloalkylamine substituted isoquinoline derivatives” (Sanofi, priority 2006, dated 2014)

What follows are molecules tested against T1, ROCKII or ROKα (Rattus norvegicus, UniProt Q62868) (assay: Determination of Rho kinase inhibition (33P-ATP, Streptavidin Flash Plate)). Details: ATP 40 μM, activity denoted as pIC50 classes.
T1 construct: purchased Upstate 14-451
Assay type: biochemical
Protocol: Determination of Rho Kinase Inhibition
To measure Rho-kinase inhibition, IC50 values were determined according to the following protocol:
Buffer: 25 mM Tris pH7.5; 0.02% BSA; 5% Glycerol; 0.008% Triton X100; 2% DMSO, 1 mM DTT; 1 mM MgCl2; 0.5 μCi/well γ^33P ATP
Enzyme: ROCKII or ROKα) (Upstate, Catalog #14-451 Lot # 24880U) 0.1 ng/μl
Final concentration of ATP in reaction mixture 40 μM
Biotinylated substrate, diluted to 0.25 μM with buffer described above (without ATP) • 1. 10 μl Tris buffer (±Inhibitor) • 2. Add 30 μL of enzyme solution • 3. Start the reaction with 30 μL of mix substrate/ATP/ATP33 • 4. Incubate for 20 min at room temperature • 5. Stop reaction with 30 μL of 50 mM EDTA • 6. Transfer 50 μL of stopped solution to Streptavidin Flash Plate plus, Perkin Elmer, SMP 103A • 7. Incubate for 30 min at RT • 8. Wash 4 times with 300 μl of PBS/0.1% Tween 20 • 9. Radioactivity in the well was determined

T1 sequence (Q62868 11-552 limits assumed): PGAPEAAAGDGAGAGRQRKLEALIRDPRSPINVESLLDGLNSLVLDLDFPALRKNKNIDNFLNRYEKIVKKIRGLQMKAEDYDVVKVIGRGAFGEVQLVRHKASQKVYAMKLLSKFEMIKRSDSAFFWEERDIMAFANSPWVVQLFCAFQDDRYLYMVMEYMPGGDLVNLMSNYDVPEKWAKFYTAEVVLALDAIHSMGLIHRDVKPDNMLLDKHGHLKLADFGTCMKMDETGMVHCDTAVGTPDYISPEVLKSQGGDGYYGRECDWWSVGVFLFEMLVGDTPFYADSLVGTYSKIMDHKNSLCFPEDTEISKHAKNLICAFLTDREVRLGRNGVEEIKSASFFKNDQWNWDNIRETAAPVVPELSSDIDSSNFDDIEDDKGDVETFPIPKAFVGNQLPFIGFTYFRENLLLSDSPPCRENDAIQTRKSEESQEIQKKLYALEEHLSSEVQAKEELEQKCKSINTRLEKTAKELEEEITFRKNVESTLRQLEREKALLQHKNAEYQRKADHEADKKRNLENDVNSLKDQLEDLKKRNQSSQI

SMILES | IC50
CC(C)N[C@H]1CC[C@@H](Oc2ccc3cnccc3c2)CC1 [Example 26, Isopropyl-cis-[4-(isoquinolin-6-yloxy)-cyclohexyl]-amine] | +++++ (6.0 ≦ pIC50)
Clc1c(OC2CCC(NC3CCCCC3)CC2)ccc2cnccc12 (stereo not shown) [Example 80, [4-(5-Chloro-isoquinolin-6-yloxy)-cyclohexyl]-cyclohexyl-amine] | +++++ (6.0 ≦ pIC50)
CN(C)/C=N/S(=O)(=O)c1cc(CN[C@H]2CC[C@@H](Oc3ccc4cnccc4c3Cl)CC2)ccc1Cl [Example 74, 2-Chloro-5-{cis-[4-(5-chloro-isoquinolin-6-yloxy)-cyclohexylamino]-methyl}-N-dimethylaminomethylene-benzenesulfonamide] | +++++ (6.0 ≦ pIC50)
c1cc2cc(O[C@H]3CC[C@@H](NC4CC4)CC3)ccc2cn1 [Example 64, cis-Cyclopropyl-[4-(isoquinolin-6-yloxy)-cyclohexyl]-amine] | +++++ (6.0 ≦ pIC50)
CN(Cc1cnn(-c2ccc(F)cc2)c1)C1CCC(Oc2ccc3cnccc3c2)CC1.O=C(O)C(F)(F)F (mixture of isomers) [Example 52, [1-(4-Fluoro-phenyl)-1H-pyrazol-4-ylmethyl]-[4-(isoquinolin-6-yloxy)-cyclohexyl]-methyl-amine] | ++++ (5.0 ≦ pIC50 < 6.0)
Cl.N[C@H]1CC[C@@H](Oc2ccc3cnccc3c2-c2ccsc2)CC1 [Example 87, cis-4-(5-Thiophen-3-yl-isoquinolin-6-yloxy)-cyclohexylamine] | +++++ (6.0 ≦ pIC50)
CC(C)CN(C)C1CCC(Oc2ccc3cnccc3c2)CC1.O=C(O)C(F)(F)F (mixture of isomers) [Example 45, Isobutyl-[4-(isoquinolin-6-yloxy)-cyclohexyl]-methyl-amine] | ++++ (5.0 ≦ pIC50 < 6.0)
N[C@H]1CC[C@@H](Oc2ccc3cnc(Nc4cnccn4)cc3c2)CC1 [Example 150, cis-[6-(4-Amino-cyclohexyloxy)-isoquinolin-3-yl]-pyrazin-2-yl-amine] | ++++ (5.0 ≦ pIC50 < 6.0)
CC(=O)Nc1ccc(CN[C@H]2CC[C@@H](Oc3ccc4cnccc4c3)CC2)cc1 [Example 72, cis-N-(4-{[4-(Isoquinolin-6-yloxy)-cyclohexylamino]-methyl}-phenyl)-acetamide] | +++++ (6.0 ≦ pIC50)
O=C(O)C(F)(F)F.c1ccc2c(CNC3CCC(Oc4ccc5cnccc5c4)CC3)cccc2c1 (mixture of isomers) [Example 54, [4-(Isoquinolin-6-yloxy)-cyclohexyl]-naphthalen-1-ylmethyl-amine] | ++++ (5.0 ≦ pIC50 < 6.0)
N[C@H]1CC[C@@H](Oc2ccc3cnc(Nc4cccc(Cl)c4)cc3c2)CC1 [Example 147, cis-[6-(4-Amino-cyclohexyloxy)-isoquinolin-3-yl]-(3-chloro-phenyl)-amine] | ++++ (5.0 ≦ pIC50 < 6.0)
N[C@H]1CC[C@@H](Oc2ccc3cnccc3c2Cl)CC1 [Example 13, cis-4-(5-Chloro-isoquinolin-6-yloxy)-cyclohexylamine] | +++++ (6.0 ≦ pIC50)
C=Cc1c(O[C@H]2CC[C@@H](N)CC2)ccc2cnccc12.Cl [Example 90, cis-4-(5-Vinyl-isoquinolin-6-yloxy)-cyclohexylamine] | +++++ (6.0 ≦ pIC50)
CCOC(=O)N1CCN(C2CCC(Oc3ccc4cnccc4c3)CC2)CC1.O=C(O)C(F)(F)F (stereo not shown) [Example 44, 4-[4-(Isoquinolin-6-yloxy)-cyclohexyl]-piperazine-1-carboxylic acid ethyl ester] | ++++ (5.0 ≦ pIC50 < 6.0)
N[C@H]1CC[C@@H](Oc2ccc3cncc(Cl)c3c2)CC1 [Example 14, cis-4-(4-Chloro-isoquinolin-6-yloxy)-cyclohexylamine] | +++++ (6.0 ≦ pIC50)
CC1(c2ccc(CNC3CCC(Oc4ccc5cnccc5c4)CC3)cc2)NC(=O)NC1=O.O=C(O)C(F)(F)F (mixture of isomers) [Example 38, 5-(4-{[4-(isoquinolin-6-yloxy)-cyclohexylamino]-methyl}-phenyl)-5-methyl-imidazolidine-2,4-dione] | +++++ (6.0 ≦ pIC50)
N[C@H]1CC[C@H](Oc2c(Cl)cc3cnccc3c2Cl)CC1 [Example 96, trans-4-(5,7-Dichloro-isoquinolin-6-yloxy)-cyclohexylamine] | +++++ (6.0 ≦ pIC50)
c1cncc(CN[C@H]2CC[C@@H](Oc3ccc4cnccc4c3)CC2)c1 [Example 23, cis-[4-(Isoquinolin-6-yloxy)-cyclohexyl]-pyridin-3-ylmethyl-amine] | +++++ (6.0 ≦ pIC50)
O=C(O)C(F)(F)F.c1csc(-c2nc(CNC3CCC(Oc4ccc5cnccc5c4)CC3)cs2)c1 (mixture of isomers) [Example 58, [4-(Isoquinolin-6-yloxy)-cyclohexyl]-(2-thiophen-2-yl-thiazol-4-ylmethyl)-amine] | ++++ (5.0 ≦ pIC50 < 6.0)
CCc1cncc2ccc(O[C@H]3CC[C@@H](N)CC3)cc12 [Example 156, cis-4-(4-Ethyl-isoquinolin-6-yloxy)-cyclohexylamine] | +++++ (6.0 ≦ pIC50)
N[C@H]1CC[C@@H](Oc2ccc3cnccc3c2Br)CC1 [Example 19, cis-4-(5-Bromo-isoquinolin-6-yloxy)-cyclohexylamine] | +++++ (6.0 ≦ pIC50)
COc1cc(Nc2cc3cc(O[C@H]4CC[C@@H](N)CC4)ccc3cn2)cc(OC)c1OC.Cl [Example 149, cis-[6-(4-Amino-cyclohexyloxy)-isoquinolin-3-yl]-(3,4,5-trimethoxy-phenyl)-amine] | +++++ (6.0 ≦ pIC50)
